From patent publication US8530512B2, “Broad spectrum gram-positive antimicrobials and anthelmintics with efficacy against drug-resistant strains and Mycobacterium species” (priority 2004, dated 2013)
Values after ≈ are worked out from the molar mass of the structure shown. Read-outs that look alike come from different tables or passages of the source.

Columns and labels:
Corynebacterium xerosis = assay: microbe, parasite or virus in culture; assay type: cell-based; conditions: Table 4, read-out: MIC
Listeria monocytogenes = assay: microbe, parasite or virus in culture; assay type: cell-based; conditions: Table 4, read-out: MIC
[1] = tested on: Corynebacterium pseudodiphthericum; assay: microbe, parasite or virus in culture; assay type: cell-based; conditions: Corynebacterium pseudodiphtheriticum; Table 4; Corynebacterium pseudodiphthericum; read-out: MIC
Bacillus cereus = assay: microbe, parasite or virus in culture; assay type: cell-based; conditions: Table 4; Bacillus cereus; read-out: MIC
[2] = tested on: Enterococcus faecalis ATCC 29212; assay: microbe, parasite or virus in culture; assay type: cell-based; conditions: ATCC29212; Table 4; Enterococcus faecalis ATCC 29212; read-out: MIC
[3] = tested on: S. aureus strains tested, including MRSA; assay: MIC assay
[4] = tested on: Enterococcus faecium VRE 1; assay: microbe, parasite or virus in culture; assay type: cell-based; conditions: Enterococcus faecium, VRE
[5] = tested on: Gram-positive bacteria tested; assay: organism not typed; assay type: cell-based
[6] = tested on: Staphylococcus aureus ATCC 29213; assay: microbe, parasite or virus in culture; assay type: cell-based; conditions: ATCC29213
Mycobacterium avium = assay: MIC assay; assay type: cell-based; conditions: Mycobacterium avium
Clostridium tertium = assay: MIC assay; assay type: cell-based; conditions: Table 4
[7] = tested on: Enterococcus sp., including VRE strains; assay: MIC assay; conditions: read-out: MICs
Streptococcus mitis = assay: microbe, parasite or virus in culture; assay type: cell-based; conditions: Table 4, read-out: MIC
M. kansasii = assay: MIC assay; assay type: cell-based; conditions: Mycobacterium kansasii
Mycobacterium chelonae = assay: MIC assay; assay type: cell-based
[8] = tested on: Staphylococcus aureus MW 2; assay: MIC assay; assay type: cell-based; conditions: MW2, Table 4
Streptococcus agalactiae = assay: microbe, parasite or virus in culture; assay type: cell-based; conditions: Table 4, read-out: MIC
[9] = tested on: vancomycin-resistant enterococci; assay: microbe, parasite or virus in culture; assay type: cell-based; conditions: Enterococcus, VRE, read-out: MICs
Mycobacterium fortuitum = assay: MIC assay; assay type: cell-based; conditions: Mycolicibacterium fortuitum
[10] = Safety Testing with Swiss Webster Mice; assay type: in vivo
C. elegans = assay: motility assay; assay type: in vivo; parameters: key to Movement score, 1/1600 / Movement score, 1/800 / Movement score, 1/400 / Movement score, 1/200 / Movement score, 1/100: normal (−); slow (+); very slow (++); not motile/paralyzed (+++); conditions: Ive 1 ng/μL in all wells
[11] = tested on: Mycobacterium intracellulare; assay: MIC assay; assay type: cell-based; conditions: Mycobacterium intracellulare
Clostridium difficile = assay: MIC assay; assay type: cell-based; conditions: Clostridioides difficile, Table 4
Mycobacterium bovis BCG = assay: microbe, parasite or virus in culture; assay type: cell-based; conditions: Mycobacterium tuberculosis variant bovis BCG, Table 4, Mycobacterium bovis BCG
[12] = tested on: Gram-positive bacterial species tested; assay: Minimal Bacterial Concentration Testing (MBC); assay type: cell-based
Method: Following the MIC, the last three wells showing no bacterial growth were diluted and plated onto BHI agar to do MBC testing.

M. smegmatis = assay: MIC assay; assay type: cell-based; conditions: Mycolicibacterium smegmatis; Table 6; read-out: MIC M. smegmatis
[13] = tested on: community-associated methicillin-resistant S. aureus (CA-MRSA) strains; assay: MIC screening against CA-MRSA strains; assay type: cell-based
[14] = tested on: Peptostreptococcus anaerobius; assay: MIC assay; assay type: cell-based; conditions: Table 4
Clostridium novyi A = assay: MIC assay; assay type: cell-based; conditions: Table 4
Streptococcus pneumoniae = assay: MIC assay; assay type: cell-based; conditions: Table 4; Streptococcus pneumoniae (source UWL)
S. aureus MW2 = assay: murine thigh abscess model of infection; conditions: for CFU/thigh reduced: single intraperitoneal injection
Propionibacterium acnes = assay: MIC assay; assay type: cell-based; conditions: Cutibacterium acnes, Table 4
[15] = tested on: methicillin-sensitive S. aureus (MSSA) strains; assay: MIC screening against MSSA strains; assay type: cell-based; conditions: Table 5, 39 tested
[16] = tested on: Erysipelothrix rhusiopathiae; assay: MIC assay; assay type: cell-based; conditions: Table 4
[17] = tested on: Enterococcus faecium VRE 14; assay: microbe, parasite or virus in culture; assay type: cell-based
Streptococcus bovis = assay: MIC assay; assay type: cell-based; conditions: Streptococcus equinus, Table 4
[18] = tested on: Staphylococcus aureus MRSA MC-1; assay: microbe, parasite or virus in culture; assay type: cell-based; conditions: Staphylococcus aureus, MRSA, read-out: MIC S. aureus MC-1

## COc1cc(O)cc(/C=C/c2cc3ccccc3s2)c1 [SK-03-92, (E)-3-(2-(benzo[b]thiophen-2-yl)vinyl)-5-methoxyphenol]
Corynebacterium xerosis
  MIC: 2 mg/L (≈ 7.08 µM)
Listeria monocytogenes
  MIC: 2 mg/L (≈ 7.08 µM)
[1]
  MIC: 2 mg/L (≈ 7.08 µM)
Bacillus cereus
  MIC: 1 mg/L (≈ 3.54 µM)
[2]
  MIC: 4 mg/L (≈ 14.2 µM)
[3]; Staphylococcus aureus, MRSA, read-out: MICs
  MIC: 2 to 4 mg/L (≈ 7.08 to 14.2 µM)
[3]; comparison among analogs of Table 6
  relative activity against S. aureus: best activity
[4]
  MIC: 2 mg/L (≈ 7.08 µM)
[5]; all of the Gram-positive bacterial species tested
  killing of Gram-positive bacterial species: killed
[5]; variety of other Gram-positive species
  MIC: 1 to 8 mg/L (≈ 3.54 to 28.3 µM)
[6]; Table 4, Staphylococcus aureus ATCC 29213, read-out: MIC
  MIC: 2 mg/L (≈ 7.08 µM)
[6]; Staphylococcus aureus, Table 6, read-out: MIC S. aureus ATCC 29213
  MIC: 4 mg/L (≈ 14.2 µM)
Mycobacterium avium; Table 6, read-out: MIC M. avium
  MIC: 16 mg/L (≈ 56.7 µM)
Mycobacterium avium; Table 4, read-out: MIC
  MIC: 16 mg/L (≈ 56.7 µM)
Clostridium tertium
  MIC: 1 mg/L (≈ 3.54 µM)
[7]
  MIC: 2 to 4 mg/L (≈ 7.08 to 14.2 µM)
Streptococcus mitis
  MIC: 2 mg/L (≈ 7.08 µM)
M. kansasii; Table 4, Mycobacterium kamasii, read-out: MIC
  MIC: 16 mg/L (≈ 56.7 µM)
M. kansasii; Table 6, read-out: MIC M. kansasii
  MIC: 16 mg/L (≈ 56.7 µM)
Mycobacterium chelonae; Table 4, Mycobacterium chelonae, read-out: MIC
  MIC: 32 mg/L (≈ 113 µM)
Mycobacterium chelonae; Table 6, read-out: MIC M. chelonae
  MIC: 32 mg/L (≈ 113 µM)
[8]
  MIC: 2 mg/L (≈ 7.08 µM)
Streptococcus agalactiae
  MIC: 2 mg/L (≈ 7.08 µM)
[9]
  MIC: 2 mg/L (≈ 7.08 µM)
Mycobacterium fortuitum; Table 4, Mycobacterium fortuitum, read-out: MIC
  MIC: 16 mg/L (≈ 56.7 µM)
Mycobacterium fortuitum; Table 6, read-out: MIC M. fortuitum
  MIC: 16 mg/L (≈ 56.7 µM)
[10]; intraperitoneal injections up to 3 g/kg, preliminary
  harm to mice: did not appear to harm the mice
[10]; ~2 g/kg dose intraperitoneally and after a repeated dose
  harm to mice: did not harm mice
C. elegans; dilution 1/100 of stock (10.24 μg/μL; SK-03-92 1.024 μg/μL)
  Movement score, 1/100: +
C. elegans; dilution 1/200 of stock (10.24 μg/μL; SK-03-92 1.024 μg/μL)
  Movement score, 1/200: −
C. elegans; dilution 1/400 of stock (10.24 μg/μL; SK-03-92 1.024 μg/μL)
  Movement score, 1/400: −
C. elegans; dilution 1/800 of stock (10.24 μg/μL; SK-03-92 1.024 μg/μL)
  Movement score, 1/800: −
C. elegans; dilution 1/1600 of stock (10.24 μg/μL; SK-03-92 1.024 μg/μL), overnight 20° C.
  Movement score, 1/1600: −
[11]; Table 6, read-out: MIC M. intracellulare
  MIC: 32 mg/L (≈ 113 µM)
[11]; Table 4, read-out: MIC
  MIC: 32 mg/L (≈ 113 µM)
Clostridium difficile
  MIC: 2 mg/L (≈ 7.08 µM)
Mycobacterium bovis BCG
  MIC: 25 mg/L (≈ 88.5 µM)
[12]
  MBC analysis: bactericidal
M. smegmatis
  MIC: 32 mg/L (≈ 113 µM)
[13]; Staphylococcus aureus, many MRSA strains
  MIC: 2 to 4 mg/L (≈ 7.08 to 14.2 µM)
[13]; Table 5, CA-MRSA, 43 tested
  MIC range: 2 to 4 mg/L
[14]
  MIC: 1 mg/L (≈ 3.54 µM)
Clostridium novyi A
  MIC: 2 mg/L (≈ 7.08 µM)
Streptococcus pneumoniae
  MIC: 16 mg/L (≈ 56.7 µM)
S. aureus MW2; high dose, preliminary
  CFU/thigh reduced: 3 logs
S. aureus MW2; low dose, preliminary
  CFU/thigh reduced: 2.5 logs
S. aureus MW2; thigh abscess model
  in vivo efficacy: in vivo efficacy
S. aureus MW2; two days after drug injection, preliminary
  drop in the bacterial counts: 2-3 log
Propionibacterium acnes
  MIC: 2 mg/L (≈ 7.08 µM)
[15]
  MIC range: 1 to 2 mg/L
[16]
  MIC: 8 mg/L (≈ 28.3 µM)
[17]
  MIC: 2 mg/L (≈ 7.08 µM)
Streptococcus bovis
  MIC: 2 mg/L (≈ 7.08 µM)
[18]
  MIC: 2 mg/L (≈ 7.08 µM)
